Data from patent US5512562A, “Tricyclic 2,3,4,5-tetrahydro-1H-3-benzapines” (Novo Nordisk A/S, priority 1993, dated 1996).

Target: T1, dopamine D1 receptor (Rattus norvegicus, UniProt P18901)
T1 construct: from tissue; host or cells: rat striatum homogenate
Assay: binding to dopamine D1 receptor in homogenates from rat striatum
Procedure: The compounds of the invention are useful because of their pharmacological activity. In particular, the compounds of the invention are active in assays predictive for antipsychotic effect. Thus the compounds of formula I were tested for their binding to dopamine D1 receptor in homogenates from rat striatum using the method described (Life Science vol. 37, p. 1971 (1985) P. Andersen et al.) and the result appears from Table I. IC50 is the affinity of tested compounds for the dopamine D1 receptor.

T1 sequence (P18901 whole entry): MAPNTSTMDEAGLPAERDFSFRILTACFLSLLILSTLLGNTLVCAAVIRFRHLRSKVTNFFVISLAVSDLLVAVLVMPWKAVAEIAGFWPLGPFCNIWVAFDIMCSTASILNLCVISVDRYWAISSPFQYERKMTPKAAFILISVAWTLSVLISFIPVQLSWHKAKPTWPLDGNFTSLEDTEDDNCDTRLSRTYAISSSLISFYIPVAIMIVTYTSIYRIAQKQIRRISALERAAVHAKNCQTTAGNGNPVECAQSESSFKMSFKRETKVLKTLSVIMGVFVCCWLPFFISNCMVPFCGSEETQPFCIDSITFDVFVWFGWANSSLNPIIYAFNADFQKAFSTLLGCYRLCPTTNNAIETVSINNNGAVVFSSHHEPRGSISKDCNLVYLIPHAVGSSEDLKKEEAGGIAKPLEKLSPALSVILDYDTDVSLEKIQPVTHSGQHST

IC50: 12 nM
SMILES: CN1CCc2c(ccc3ccoc23)C(c2cccc3ccoc23)C1 (racemic) [Example 1, 6-(Benzofuran-7-yl)-8-methyl-7,8,9,10-tetrahydro-6H-furo 2,3-g! 3!benzazepine]
